Laboratory results: ChEMBL document CHEMBL1201862, “PubChem BioAssay data set” (2004)
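Exposure lasted 48 hours, with cells grown in 96-well plates and compounds tested at five concentrations. Here, GI50 denotes the concentration required for 50% inhibition of growth.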 Calls of active or inactive are those of the source. No stated cut-off is given here; in the data, active = GI50 up to about 1.1 µM and inactive = higher.

Legend:
Assay in all cases: NCI tumour cell line growth inhibition, 48 h
[1] = test system: A498
[2] = test system: ACHN
[3] = test system: HCC 2998
[4] = test system: HCT-15
[5] = test system: HL-60
[6] = test system: K562
[7] = test system: M14
[8] = test system: MOLT-4
[9] = test system: NCI-H23
[10] = test system: OVCAR-3
[11] = test system: OVCAR-4
[12] = test system: RPMI-8226
[13] = test system: SF-539
[14] = test system: SK-MEL-28
[15] = test system: SK-MEL-5
[16] = test system: SN12C
[17] = test system: SR
[18] = test system: SW-620
[19] = test system: UACC-257
[20] = test system: LXFL 529

Row | Structure (SMILES) | GI50 [1] | GI50 [2] | GI50 [3] | GI50 [4] | GI50 [5] | GI50 [6] | GI50 [7] | GI50 [8] | GI50 [9] | GI50 [10] | GI50 [11] | GI50 [12] | GI50 [13] | GI50 [14] | GI50 [15] | GI50 [16] | GI50 [17] | GI50 [18] | GI50 [19] | GI50 [20]
1 | COc1cc(C2c3cc4c(cc3OC(NC3CCCCC3)C2C)OCO4)cc(OC)c1OC (stereo not drawn) | 0.681 µM (active) | 0.746 µM (active) | 1.5 µM (inactive) | 0.543 µM | 0.271 µM (active) | 0.393 µM (active) | 0.508 µM (active) | 0.48 µM (active) | 0.499 µM (active) | 0.267 µM (active) | 0.615 µM (active) | 0.403 µM (active) | 0.339 µM (active) | 21.8 µM (inactive) | 0.362 µM (active) | 0.687 µM (active) | 0.378 µM (active) | 0.34 µM (active) | 46.8 µM (inactive) | –
2 | COc1cc2c(cc1OC)C(=O)N(NC1=NCCN1)C2=O | > 100 µM (inactive) | > 100 µM (inactive) | > 100 µM (inactive) | > 100 µM | > 100 µM (inactive) | > 100 µM (inactive) | > 100 µM (inactive) | > 100 µM (inactive) | > 100 µM (inactive) | > 100 µM (inactive) | > 100 µM (inactive) | > 100 µM (inactive) | > 100 µM (inactive) | > 100 µM (inactive) | > 100 µM (inactive) | > 100 µM (inactive) | 63 µM (inactive) | > 100 µM (inactive) | > 100 µM (inactive) | –
3 | CC1COS(=O)O1 (stereo not drawn) | > 100 µM (inactive) | > 100 µM (inactive) | > 100 µM (inactive) | > 100 µM | > 100 µM (inactive) | > 100 µM (inactive) | > 100 µM (inactive) | > 100 µM (inactive) | > 100 µM (inactive) | > 100 µM (inactive) | > 100 µM (inactive) | > 100 µM (inactive) | > 100 µM (inactive) | > 100 µM (inactive) | > 100 µM (inactive) | > 100 µM (inactive) | > 100 µM (inactive) | > 100 µM (inactive) | > 100 µM (inactive) | –
4 | CC(C)c1cc(C(C)C)c(P2(=O)CC3C(Cl)(Cl)C3(C)C2)c(C(C)C)c1 (stereo not drawn) | 13.8 µM (inactive) | 12.5 µM (inactive) | 13.4 µM (inactive) | 9.53 µM | 4.2 µM (inactive) | 8.95 µM (inactive) | 8.71 µM (inactive) | 2.77 µM (inactive) | 9.55 µM (inactive) | 7.57 µM (inactive) | 4.94 µM (inactive) | 3.24 µM (inactive) | 14 µM (inactive) | 15.8 µM (inactive) | 10.1 µM (inactive) | 12.3 µM (inactive) | 1.74 µM (inactive) | 7.55 µM (inactive) | 7.96 µM (inactive) | –
5 | CSC1=N/C(=C\c2c[nH]c3ccccc23)C(=O)N1 | 38.1 µM (inactive) | 44.4 µM (inactive) | 21.9 µM (inactive) | 75.3 µM | 18.3 µM (inactive) | 75.9 µM (inactive) | 73.6 µM (inactive) | > 100 µM (inactive) | > 100 µM (inactive) | 85.3 µM (inactive) | 71.4 µM (inactive) | 77.4 µM (inactive) | > 100 µM (inactive) | > 100 µM (inactive) | 39.4 µM (inactive) | > 100 µM (inactive) | 97.7 µM (inactive) | > 100 µM (inactive) | > 100 µM (inactive) | –
6 | O=c1ccc2ccc(OP(=O)(O)O)cc2o1 | > 100 µM (inactive) | > 100 µM (inactive) | > 100 µM (inactive) | > 100 µM | > 100 µM (inactive) | > 100 µM (inactive) | > 100 µM (inactive) | > 100 µM (inactive) | > 100 µM (inactive) | > 100 µM (inactive) | > 100 µM (inactive) | > 100 µM (inactive) | > 100 µM (inactive) | > 100 µM (inactive) | > 100 µM (inactive) | > 100 µM (inactive) | > 100 µM (inactive) | > 100 µM (inactive) | > 100 µM (inactive) | –
7 | COC(=O)c1ccccc1C1CN=NC12Cc1c(C)cccc1C2=O (stereo not drawn) | > 100 µM (inactive) | > 100 µM (inactive) | > 100 µM (inactive) | > 100 µM | 87.3 µM (inactive) | > 100 µM (inactive) | > 100 µM (inactive) | 69.5 µM (inactive) | > 100 µM (inactive) | > 100 µM (inactive) | > 100 µM (inactive) | > 100 µM (inactive) | > 100 µM (inactive) | > 100 µM (inactive) | 90.2 µM (inactive) | > 100 µM (inactive) | > 100 µM (inactive) | > 100 µM (inactive) | > 100 µM (inactive) | –
8 | O=C1O[C@H]2C3C4CCC(C4[C@@H]2I)[C@H]13 (stereo partly drawn) | > 100 µM (inactive) | > 100 µM (inactive) | > 100 µM (inactive) | > 100 µM | > 100 µM (inactive) | > 100 µM (inactive) | > 100 µM (inactive) | > 100 µM (inactive) | > 100 µM (inactive) | > 100 µM (inactive) | > 100 µM (inactive) | > 100 µM (inactive) | > 100 µM (inactive) | > 100 µM (inactive) | > 100 µM (inactive) | > 100 µM (inactive) | > 100 µM (inactive) | > 100 µM (inactive) | > 100 µM (inactive) | –
9 | NC(=O)N/N=C(\CC1OC(=O)c2ccccc21)c1ccco1 (stereo not drawn) | > 100 µM (inactive) | > 100 µM (inactive) | > 100 µM (inactive) | > 100 µM | > 100 µM (inactive) | > 100 µM (inactive) | > 100 µM (inactive) | > 100 µM (inactive) | > 100 µM (inactive) | > 100 µM (inactive) | > 100 µM (inactive) | – | > 100 µM (inactive) | > 100 µM (inactive) | > 100 µM (inactive) | – | – | > 100 µM (inactive) | > 100 µM (inactive) | > 100 µM (inactive)
10 | CC(=O)c1ccc2c(c1)CC1(C2)Cc2cc3c(cc2C1=O)CCC3 (stereo not drawn) | 19.5 µM (inactive) | 16.1 µM (inactive) | 18.6 µM (inactive) | 29 µM | 14.3 µM (inactive) | 16.5 µM (inactive) | 15 µM (inactive) | 4.28 µM (inactive) | 21.5 µM (inactive) | 16.1 µM (inactive) | 15.1 µM (inactive) | 11.1 µM (inactive) | 29.9 µM (inactive) | 24.6 µM (inactive) | 10.3 µM (inactive) | 16.7 µM (inactive) | 3.04 µM (inactive) | 32.6 µM (inactive) | 15 µM (inactive) | –
11 | Cc1csc(CCC(N)C(=O)O)n1 (stereo not drawn) | – | > 100 µM (inactive) | > 100 µM (inactive) | > 100 µM | – | > 100 µM (inactive) | > 100 µM (inactive) | > 100 µM (inactive) | > 100 µM (inactive) | > 100 µM (inactive) | – | > 100 µM (inactive) | > 100 µM (inactive) | > 100 µM (inactive) | > 100 µM (inactive) | > 100 µM (inactive) | – | > 100 µM (inactive) | > 100 µM (inactive) | > 100 µM (inactive)
12 | Cc1ccc(NC(=O)CCC(CC(=O)C(C)(C)C)=NNC(=O)C(=O)NN)cc1C | – | > 100 µM (inactive) | > 100 µM (inactive) | > 100 µM | > 100 µM (inactive) | > 100 µM (inactive) | > 100 µM (inactive) | > 100 µM (inactive) | > 100 µM (inactive) | > 100 µM (inactive) | > 100 µM (inactive) | > 100 µM (inactive) | > 100 µM (inactive) | > 100 µM (inactive) | > 100 µM (inactive) | > 100 µM (inactive) | – | > 100 µM (inactive) | > 100 µM (inactive) | > 100 µM (inactive)
13 | CSC1(SC)N2Cc3ccccc3N=C2C1(c1ccccc1)c1ccccc1 | 15.7 µM (inactive) | 14.1 µM (inactive) | 2.6 µM (inactive) | 12.1 µM | 6.08 µM (inactive) | 10.1 µM (inactive) | 12.2 µM (inactive) | 2.77 µM (inactive) | 16 µM (inactive) | 6.4 µM (inactive) | 10.1 µM (inactive) | 5.38 µM (inactive) | 12.8 µM (inactive) | 38.1 µM (inactive) | 11.4 µM (inactive) | 20.5 µM (inactive) | 1.95 µM (inactive) | 13 µM (inactive) | 13 µM (inactive) | –
14 | CCCCCCCCCCCCn1[nH]c(C)c(C(=S)SCCCCCCCC)c1=O | > 100 µM (inactive) | 37.6 µM (inactive) | > 96.6 µM (inactive) | 21 µM | 45.1 µM (inactive) | 40.3 µM (inactive) | 56.1 µM (inactive) | 14 µM (inactive) | 73.3 µM (inactive) | 34.8 µM (inactive) | 95.5 µM (inactive) | – | 73.8 µM (inactive) | > 100 µM (inactive) | 49 µM (inactive) | 86.3 µM (inactive) | – | 35.2 µM (inactive) | 41.8 µM (inactive) | 53.2 µM (inactive)
15 | COc1nc(C(Cl)(Cl)Cl)c(Cl)c(OC)c1Cl [PENCLOMEDINE] | 52.6 µM (inactive) | 39.3 µM (inactive) | 46.1 µM (inactive) | 40.6 µM | 7.46 µM (inactive) | 26.4 µM (inactive) | 40 µM (inactive) | 19.4 µM (inactive) | 42.2 µM (inactive) | 38.8 µM (inactive) | 25.7 µM (inactive) | 24.1 µM (inactive) | 40.8 µM (inactive) | 39.7 µM (inactive) | 22.5 µM (inactive) | 39 µM (inactive) | 37.1 µM (inactive) | 39.4 µM (inactive) | 43.8 µM (inactive) | –
